Publication PMC6182184 (2018)

Test system: SRB-2 (RNA, aptamer) GGAACCUCGCUUCGGCGAUGAUGGAGAGGCGCAAGGUUAACCGCCUCAGGUUCC
Test: fluorescence titration
Details: 125 mM KCl, 5 mM MgCl2, 20 mM Hepes pH 7.4, 25 °C, RNA titrated

| Structure (SMILES) | Kd (10 nM probe) [nM] | Kd (50 nM probe) [nM] |
| --- | --- | --- |
| CCN(CC)c1ccc2cc3ccc(=[N+](CC)CC)cc-3oc2c1 | 251 ± 50 |  |
| CN(C)c1ccc2cc3ccc(N(C)C)cc3nc2c1 | 88 ± 8 |  |
| Nc1c2ccccc2nc2ccccc12 |  | 2960 ± 240 |
| CCN(CC)c1ccc2nc3ccc(N(CC)CC)cc3[o+]c2c1 |  | 260 ± 21 |
| CN(C)c1ccc2cc3ccc(N(C)C)cc3[o+]c2c1 | 59 ± 9 |  |
